Patent US20260297094A1, “Tetracyclic Compounds as SMARCA2 and/or SMARCA4 Degraders” (Aurigene Oncology Limited, priority 2023, published 2026)
pEC50: −log10 of the molar value. Structures can show the parent of a compound that is named as a salt.

What was measured:
MV-4-11 cells = assay: Anti proliferative activity in MV-4-11 cells by Cell Titer Glo (Promega) assay; type: cell-based; conditions: Homo sapiens, MV4-11, 72 h, 3 days, CellTiter-Glo
Description: Example-P2: Determination of Anti Proliferative Activity of Compounds in Cell Lines MV-4-11 by Cell Titer Glo® (Promega) Assay
MV-4-11 (CRL-9591™) cells were seeded in 96 well plate flat black clear bottom plates (Corning, Cat. No 3904) using complete DMEM Medium. Next day, selected compounds of the present invention were added to cells from 10 mM stocks made in DMSO (Sigma Cat no. D2650). Each concentration of compound was tested in triplicate with DMSO concentration at a final percentage not exceeding 0.3 in the cells. After the incubation of MV-4-11 cells with compound for 3 days; assay was terminated using 100 μl of CellTiter Glo® reagent (Promega, Cat. no G7572). CellTiter-Glo® Luminescent reagent determines the number of viable cells based on quantitation of ATP present which is an indicator of cell number and metabolic activity. Luminescence readings were taken in Victor-5 instrument. Percent inhibition of proliferation was calculated using formula, % inhibition=100−(luminescence value of test/luminescence value of DMSO control)*100. DMSO control (0%)=Cells in complete media with DMSO; blank=Media alone containing DMSO. EC50 was calculated using graph pad prism software.

SK-MEL-5 cells = assay: Anti proliferative activity in SK-MEL-5 cells by Cell Titer Glo (Promega) assay; type: cell-based; conditions: Homo sapiens, retreatment on Day 4, terminated on day 8, CellTiter-Glo
Description: Example-P1: Determination of Anti Proliferative Activity of Compounds in Cell Lines SK-MEL-5 by Cell Titer Glo® (Promega) Assay
Cells were seeded into 96-well plates and the plate was incubated in 37 degrees incubator overnight. The next day, compounds were diluted 3-fold to cover 9-point concentration range in DMSO. Intermediate plate dilution was prepared in media followed with compound treatment in cells. Retreatment of cells with compound dilutions was performed on Day 4 and assay was terminated on day 8 for SK-MEL-5 cells using CellTiter-Glo and the plate was kept on orbital shaker for 20 minutes at RT. Assay was terminated on day 6 for RERF-LC-A1 without a compound retreatment. Luminescence signal was recorded on VICTOR^3 instrument. Percent inhibition of proliferation was calculated at each concentration and plotted against the compound concentration. EC50 value was calculated using GraphPad® software.

Row | pEC50 (MV-4-11 cells) | pEC50 (SK-MEL-5 cells) | Compound
1 | < 7.00 | < 7.00 | O=C1CCC(N2C(=O)c3ccc(N4CCN(c5ccc6c(c5)n(C5CCCC5)c5nc(=O)c7c(Br)cccc7n65)CC4)cc3C2=O)C(=O)N1 (stereo not drawn) [Compound 5, 5-(4-(4-bromo-7-cyclopentyl-5-oxo-5,7-dihydrobenzo[4,5]imidazo[1,2-a]quinazolin-9-yl)piperazin-1-yl)-2-(2,6-dioxopiperidin-3-yl)isoindoline-1,3-dione]
2 | < 7.00 | < 7.00 | Nc1cccc2c1c(=O)nc1[nH]c3cc(N4CCC(N5CCC(c6ccc(C7CCC(=O)NC7=O)cc6)CC5)CC4)ccc3n12 (stereo not drawn) [Compound 31, 3-(4-(1′-(4-amino-5-oxo-5,7-dihydrobenzo[4,5]imidazo[1,2-a]quinazolin-9-yl)-[1,4′-bipiperidin]-4-yl)phenyl)piperidine-2,6-dione-TFA salt]
3 | < 7.00 | < 7.00 | CC(C)n1c2cc(-c3ccc(N4CCN(c5ccc(NC6CCC(=O)NC6=O)cc5F)CC4)cc3)ccc2n2c3cccc(Cl)c3c(=O)nc12 (stereo not drawn) [Compound 50, 3-((4-(4-(4-(4-chloro-7-isopropyl-5-oxo-5,7-dihydrobenzo[4,5]imidazo[1,2-a]quinazolin-9-yl)phenyl)piperazin-1-yl)-3-fluorophenyl)amino)piperidine-2,6-dione.TFA]
4 | < 7.00 | < 7.00 | O=C1CCC(c2ccc(C3CCN(C4CCN(c5ccc6c(c5)n(C5CCCC5)c5nc(=O)c7ncccc7n65)CC4)CC3)cc2)C(=O)N1 (stereo not drawn) [Compound 24, 3-(4-(1′-(7-cyclopentyl-5-oxo-5,7-dihydrobenzo[4,5]imidazo[1,2-a]pyrido[2,3-e]pyrimidin-9-yl)-[1,4′-bipiperidin]-4-yl)phenyl)piperidine-2,6-dione]
5 | > 8.00 | > 8.00 | Cn1c2cc(N3CCC(N4CCC(c5ccc6c(c5)CN(C5CCC(=O)NC5=O)C6=O)CC4)CC3)ccc2n2c3cccc(Cl)c3c(=O)nc12 (stereo not drawn) [Compound 27, 3-(5-(1′-(4-chloro-7-methyl-5-oxo-5,7-dihydrobenzo[4,5]imidazo[1,2-a]quinazolin-9-yl)-[1,4′-bipiperidin]-4-yl)-1-oxoisoindolin-2-yl)piperidine-2,6-dione]
6 | < 7.00 | > 8.00 | CC(C)n1c2cc(N3CCC(N4CCN(c5ccc(NC6CCC(=O)NC6=O)cc5F)CC4)CC3)ccc2n2c3cccc(Cl)c3c(=O)nc12 (stereo not drawn) [Compound 47, 3-((4-(4-(1-(4-chloro-7-isopropyl-5-oxo-5,7-dihydrobenzo[4,5]imidazo[1,2-a]quinazolin-9-yl)piperidin-4-yl)piperazin-1-yl)-3-fluorophenyl)amino)piperidine-2,6-dione]
7 | < 7.00 | < 7.00 | COc1cccc2c1c(=O)nc1n(C3CCCC3)c3cc(N4CCC(N5CCC(c6ccc(NC7CCC(=O)NC7=O)cc6F)CC5)CC4)ccc3n21 (stereo not drawn) [Compound 11, 3-((4-(1′-(7-cyclopentyl-4-methoxy-5-oxo-5,7-dihydrobenzo[4,5]imidazo[1,2-a]quinazolin-9-yl)-[1,4′-bipiperidin]-4-yl)-3-fluorophenyl)amino)piperidine-2,6-dione]
8 | < 7.00 | < 7.00 | O=C1CCC(Nc2ccc(C3CCN(C4CCN(c5ccc6c(c5)[nH]c5nc(=O)c7c(Br)cccc7n56)CC4)CC3)c(F)c2)C(=O)N1 (stereo not drawn) [Compound 34, 3-((4-(1′-(4-bromo-5-oxo-5,7-dihydrobenzo[4,5]imidazo[1,2-a]quinazolin-9-yl)-[1,4′-bipiperidin]-4-yl)-3-fluorophenyl)amino)piperidine-2,6-dione]
9 | < 7.00 | < 7.00 | Nc1cccc2c1c(=O)nc1n(C3CC3)c3cc(N4CCC(N5CCN(c6ccc(NC7CCC(=O)NC7=O)cc6F)CC5)CC4)ccc3n21 (stereo not drawn) [Compound 37, 3-((4-(4-(1-(4-amino-7-cyclopropyl-5-oxo-5,7-dihydrobenzo[4,5]imidazo[1,2-a]quinazolin-9-yl)piperidin-4-yl)piperazin-1-yl)-3-fluorophenyl)amino)piperidine-2,6-dione]
